# Source: patent US20260200928A1, “THERAPEUTIC COMPOUNDS” (Sanofi, priority 2022, published 2026)
# Target: T1, human IL-17A (Homo sapiens, UniProt Q16552)
# T1 construct: purchased R&D Systems 7955-IL/CF
# T1 sequence (Q16552 24-155): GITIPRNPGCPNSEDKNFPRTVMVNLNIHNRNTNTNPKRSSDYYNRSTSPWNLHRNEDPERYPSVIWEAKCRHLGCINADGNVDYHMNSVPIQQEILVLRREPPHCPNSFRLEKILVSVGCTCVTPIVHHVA
# Assay: IL-17A AlphaLISA competition assay (block of IL-17A binding to its receptor IL-17RA)
# Conditions: mean IC50 (n≥2), block of IL-17A binding to IL-17RA
# Outline: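 Human recombinant IL-17A (7.5 nM stock) pre-incubated 30 min at RT with compound, then IL-17RA/Fc (5 nM stock) added for 90 min; AlphaLISA read with anti-Fc acceptor beads, biotinylated anti-IL-17A antibody (5 nM) and streptavidin donor beads (3 h, dark). IC50 from 4-parameter logistic fit, normalised to DMSO and 4 μM reference inhibitor; n≥2.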
row,Structure (SMILES),IC50
1,"COCC(c1ccnc(NC(=O)[C@@H](NC(=O)c2nonc2C2CC2)C2CCC(F)(F)CC2)c1)[C@H]1C[C@@H](C(F)(F)F)NC1=O (single isomer, unassigned) [Example 186, 4-Cyclopropyl-N-((1S)-1-(4,4-difluorocyclohexyl)-2-((4-((R or S)-2-methoxy-1-((3R,5S)-2-oxo-5-(trifluoromethyl)pyrrolidin-3-yl)ethyl)pyridin-2-yl)amino)-2-oxoethyl)-1,2,5-oxadiazole-3-carboxamide]",69 nM
2,"COCC(c1ccnc(NC(=O)[C@@H](NC(=O)c2nonc2C2CC2)C2CCC(F)(F)CC2)c1)[C@@H]1C[C@@H](C(F)(F)F)NC1=O (single isomer, unassigned) [Example 184, 4-Cyclopropyl-N—((S)-1-(4,4-difluorocyclohexyl)-2-((4-((R or S)-2-methoxy-1-((3S,5S)-2-oxo-5-(trifluoromethyl)pyrrolidin-3-yl)ethyl)pyridin-2-yl)amino)-2-oxoethyl)-1,2,5-oxadiazole-3-carboxamide]",637 nM
3,"C[C@@H](OC(C)(C)C)[C@H](NC(=O)c1ccnn1C)C(=O)Nc1cc(CN2C[C@@H](C(F)(F)F)NC2=O)ccn1 [Example 103, N-((2S,3R)-3-(tert-butoxy)-1-oxo-1-((4-(((S)-2-oxo-4-(trifluoromethyl)-imidazolidin-1-yl)methyl)pyridin-2-yl)amino)butan-2-yl)-1-methyl-1H-pyrazole-5-carboxamide]",1740 nM
4,"COC[C@H](c1ccnc(NC(=O)C(NC(=O)c2nonc2C2CC2)C2CCC(C)(F)CC2)c1)N1C[C@@H](C(F)(F)F)NC1=O (single isomer, unassigned) [Example 296]",4490 nM
5,"Cc1cn([C@H](C)c2ccnc(NC(=O)[C@@H](NC(=O)c3nonc3C3CC3)C3CCC(F)(F)CC3)c2)c(=O)[nH]1 [Example 168, 4-Cyclopropyl-N—((S)-1-(4,4-difluorocyclohexyl)-2-((4-((R)-1-(4-methyl-2-oxo-2,3-dihydro-1H-imidazol-1-yl)ethyl)pyridin-2-yl)amino)-2-oxoethyl)-1,2,5-oxadiazole-3-carboxamide]",5790 nM
6,"CCn1nccc1C(=O)N[C@H](C(=O)Nc1cc([C@@H](COC)N2CC(F)(F)CNC2=O)ccn1)C1CCC(F)(F)CC1 [Example 179, N-((S)-2-((4-((S)-1-(5,5-difluoro-2-oxotetrahydropyrimidin-1(2H)-yl)-2-methoxyethyl)pyridin-2-yl)amino)-1-(4,4-difluorocyclohexyl)-2-oxoethyl)-1-ethyl-1H-pyrazole-5-carboxamide]",83 nM
7,"COC[C@H](c1ccnc(NC(=O)[C@H](COC(C)(C)C(F)(F)F)NC(=O)c2ccnn2C(C)C)c1)N1C[C@@H](C(F)(F)F)NC1=O [Example 272, 1-isopropyl-N-((S)-1-((4-((S)-2-methoxy-1-((S)-2-oxo-4-(trifluoromethyl)imidazolidin-1-yl)ethyl)pyridin-2-yl)amino)-1-oxo-3-((1,1,1-trifluoro-2-methylpropan-2-yl)oxy)propan-2-yl)-1H-pyrazole-5-carboxamide]",48 nM
8,"COC[C@H](c1ccnc(NC(=O)[C@@H](NC(=O)c2nonc2OCC(F)(F)F)C2CCC(F)(F)CC2)c1)N1C[C@@H](C(F)(F)F)NC1=O [Example 193, N-((S)-1-(4,4-difluorocyclohexyl)-2-((4-((S)-2-methoxy-1-((S)-2-oxo-4-(trifluoromethyl)imidazolidin-1-yl)ethyl)pyridin-2-yl)amino)-2-oxoethyl)-4-(2,2,2-trifluoroethoxy)-1,2,5-oxadiazole-3-carboxamide]",105 nM
9,"Cc1cc(COC(=O)N[C@H](C(=O)Nc2cc(CN3C[C@@H](C(F)(F)F)NC3=O)ccn2)C2CCC(F)(F)CC2)nn1C [Example 60, (1,5-Dimethyl-1H-pyrazol-3-yl)methyl ((S)-1-(4,4-difluorocyclohexyl)-2-oxo-2-((4-(((S)-2-oxo-4-(trifluoromethyl)imidazolidin-1-yl)methyl)pyridin-2-yl)amino)ethyl)carbamate]",3750 nM
10,"COC[C@H](c1ccnc(NC(=O)[C@@H](NC(=O)c2nonc2C(C)C)C2CCC(F)(F)CC2)c1)N1C[C@@H](C(F)(F)F)NC1=O [Example 195, N-((S)-1-(4,4-difluorocyclohexyl)-2-((4-((S)-2-methoxy-1-((S)-2-oxo-4-(trifluoromethyl)imidazolidin-1-yl)ethyl)pyridin-2-yl)amino)-2-oxoethyl)-4-isopropyl-1,2,5-oxadiazole-3-carboxamide]",18 nM
11,"Cc1cnn(C)c1Cc1ccnc(NC(=O)[C@@H](NC(=O)OC(C)(C)C)[C@H]2CC[C@H](C)CC2)c1 [Example 51, tert-butyl ((S)-2-((4-((1,4-dimethyl-1H-pyrazol-5-yl)methyl)pyridin-2-yl)amino)-1-((1r,4S)-4-methylcyclohexyl)-2-oxoethyl)carbamate]",2080 nM

# The next lines start with the values.
row,IC50,Structure (SMILES)
1,39 nM,"C[C@H]1CC[C@H]([C@H](NC(=O)c2nonc2C2CC2)C(=O)Nc2cc(C(CO)N3C[C@@H](C(F)(F)F)NC3=O)ccn2)CC1 (single isomer, unassigned) [Example 234, 4-Cyclopropyl-N-((1S)-2-((4-((R or S)-2-hydroxy-1-((S)-2-oxo-4-(trifluoromethyl)imidazolidin-1-yl)ethyl)pyridin-2-yl)amino)-1-((1r,4S)-4-methylcyclohexyl)-2-oxoethyl)-1,2,5-oxadiazole-3-carboxamide]"
2,50 nM,"Cn1nccc1C(=O)N[C@H](C(=O)Nc1cc(C(C2CC2)N2C[C@@H](C(F)(F)F)NC2=O)ccn1)C1CCC(F)(F)CC1 (single isomer, unassigned) [Example 166, N-((1S)-2-((4-((R or S)-cyclopropyl((S)-2-oxo-4-(trifluoromethyl)imidazolidin-1-yl)methyl)pyridin-2-yl)amino)-1-(4,4-difluorocyclohexyl)-2-oxoethyl)-1-methyl-1H-pyrazole-5-carboxamide]"
3,1250 nM,"COCC(NC(=O)CCC(F)(F)F)c1ccnc(NC(=O)[C@@H](NC(=O)c2nonc2C2CC2)C2CCC(F)(F)CC2)c1 (single isomer, unassigned) [Example 134]"
4,90 nM,"COC[C@H](c1ccnc(NC(=O)[C@@H](NC(=O)c2nonc2C)C2CCC(Cl)CC2)c1)N1C[C@@H](C(F)(F)F)NC1=O (stereo partly drawn) [Example 315, N-((1S)-1-(4-chlorocyclohexyl)-2-((4-((S)-2-methoxy-1-((S)-2-oxo-4-(trifluoromethyl)imidazolidin-1-yl)ethyl)pyridin-2-yl)amino)-2-oxoethyl)-4-methyl-1,2,5-oxadiazole-3-carboxamide]"
5,448 nM,"Cn1nccc1C(=O)N[C@H](C(=O)Nc1cc(C(NC(=O)CCC(F)(F)F)C2CC2)ccn1)C(C1CC1)C1CC1 (single isomer, unassigned) [Example 38]"
6,21 nM,"COCC(c1ccnc(NC(=O)[C@@H](NC(=O)c2conc2C2CC2)[C@H]2CC[C@H](C)CC2)c1)N1C[C@@H](C(F)(F)F)NC1=O (single isomer, unassigned) [Example 126]"
7,362 nM,"CCn1nccc1C(=O)N[C@H](C(=O)Nc1cc(C(C)(C)N2C[C@@H](C(F)(F)F)NC2=O)ccn1)C1CCC(F)(F)CC1 [Example 174, N-((S)-1-(4,4-difluorocyclohexyl)-2-oxo-2-((4-(2-((S)-2-oxo-4-(trifluoromethyl)imidazolidin-1-yl)propan-2-yl)pyridin-2-yl)amino)ethyl)-1-ethyl-1H-pyrazole-5-carboxamide]"
8,29 nM,"CC1CCC(C(NC(=O)c2ccnn2C(C)C)C(=O)Nc2cc(C(C)N3CC(C(F)(F)F)NC3=O)ccn2)CC1 [Example 241, 1-isopropyl-N-((S)-1-((1r,4S)-4-methylcyclohexyl)-2-oxo-2-((4-((R)-1-((S)-2-oxo-4-(trifluoromethyl)imidazolidin-1-yl)ethyl)pyridin-2-yl)amino)ethyl)-1H-pyrazole-5-carboxamide]"
9,1000 nM,"COCC(c1ccnc(NC(=O)C(NC(=O)Cc2c(C)noc2C)C2CCC(C)CC2)c1)N1CC(C(F)(F)F)NC1=O [Example 113, (2S)-2-(2-(3,5-dimethyl-isoxazol-4-yl)acetamido)-N-(4-(2-methoxy-1-((S)-2-oxo-4-(trifluoromethyl)-imidazolidin-1-yl)ethyl)-pyridin-2-yl)-2-((1r,4S)-4-methylcyclohexyl)-acetamide]"
10,539 nM,"COCC(c1ccnc(NC(=O)[C@@H](NC(=O)c2ncsc2C#N)[C@H]2CC[C@H](C)CC2)c1)N1C[C@@H](C(F)(F)F)NC1=O (single isomer, unassigned) [Example 92]"
11,171 nM,"CC(C)n1nccc1C(=O)N[C@H](C(=O)Nc1cc(C(NC(=O)CCC(F)(F)F)C2CC2)ccn1)C(C1CC1)C1CC1 (single isomer, unassigned) [Example 43]"
12,23 nM,"COCC(c1ccnc(NC(=O)[C@@H](NC(=O)c2nocc2C2CC2)[C@H]2CC[C@H](C)CC2)c1)N1C[C@@H](C(F)(F)F)NC1=O (single isomer, unassigned) [Example 121]"
13,153 nM,"CCn1nccc1C(=O)NC(C(=O)Nc1cc(CN2CC(C(F)(F)F)NC2=O)ccn1)C1CCC(F)CC1 [Example 293, 1-ethyl-N-((S)-1-((1r,4S)-4-fluorocyclohexyl)-2-oxo-2-((4-(((S)-2-oxo-4-(trifluoromethyl)imidazolidin-1-yl)methyl)pyridin-2-yl)amino)ethyl)-1H-pyrazole-5-carboxamide]"
14,26 nM,"Cn1nccc1C(=O)N[C@H](C(=O)Nc1cc(C(NC(=O)CCC(F)(F)F)C2CC2)ccn1)[C@H]1CC[C@H](C)CC1 (stereo partly drawn) [Example 236, N-((1S)-2-((4-(cyclopropyl(4,4,4-trifluorobutanamido)methyl)pyridin-2-yl)amino)-1-((1r,4S)-4-methylcyclohexyl)-2-oxoethyl)-1-methyl-1H-pyrazole-5-carboxamide]"
